Measured values published in patent publication US20250235429A1, “TREATMENT OF DISEASES VIA ADMINISTRATION OF BUNTANETAP AND AN ANTIDIABETIC AGENT” (ANNOVIS BIO, INC., priority 2024, published 2025).

Experiments:
[1] = system: APP in SH-SY-5Y human neuroblastoma cells; conditions: cited from earlier work
rat acute glaucoma model = conditions: cited from earlier work
[2] = system: APP/PS1 transgenic (tg) mouse model of AD; conditions: cited from earlier work
[3] = system: traumatic brain injury rats; conditions: cited from earlier work
APP and its fragments = assay: APP in vivo in APP/PS1 transgenic AD mice (hippocampus)
Excerpt: FIG. 2, APP in vivo. […] GAPDH and Synaptophysin were loading controls. FIG. 2 also includes a collection of graphs showing relative density of APP plotted against control and time after buntanetap treatment; relative density of CTFβ plotted against control and time after buntanetap treatment; relative density of CTFα plotted against control and time after buntanetap treatment; A042 levels in brain tissue plotted against control and time after buntanetap treatment; and A040 levels in brain tissue plotted against control and time after buntanetap treatment. Finally, FIG. 2 also includes a Western blot showing levels of APP, NSB, CTFβ, and CTFα after buntanetap treatment over time (minutes).

## CN1CC[C@]2(C)c3cc(OC(=O)Nc4ccccc4)ccc3N(C)C12 (stereo partly drawn) [Buntanetap, (3aR)-1,3a,8-trimethyl-1,2,3,3a,8,8a-hexahydropyrrolo[2,3-b]indol-5-yl phenylcarbamate]
[1]
  levels of APP in vitro: lowers
Rat acute glaucoma model; acute glaucoma
  retina: Preserved
Rat acute glaucoma model; rat acute glaucoma model
  nerve cells: protected
[2]; APP/PS1 transgenic (tg) mouse model of AD
  memory and learning: Restored
[2]; hippocampus of APP/PS1 tg mice
  impaired synaptic transmission: Normalized
[3]; rat brain after TBI
  inflammation: lowered
[3]; rat striatum after traumatic brain injury (TBI)
  impaired synaptic transmission: Normalized
[3]; rat substantia Ingra after TBI
  nerve cells: protected
[3]; traumatic brain injury rats
  memory and learning: Preserved
APP and its fragments; APP/PS1 mice
  time after the last dose for which APP and all related peptides in hippocampus were reduced: at least 9 hours
APP and its fragments; APP/PS1 transgenic AD mice
  APP and its fragments in hippocampus: reduced
